From patent US5248796A, “Taxol derivatives” (Bristol-Myers Squibb Company, priority 1992, dated 1993)
Like-named read-outs stand apart in the source and are kept apart here.

Columns and labels:
[1] = tested on: HCT-116 human colon carcinoma cells; test: In vitro cytotoxicity, XTT assay, HCT-116 human colon carcinoma cells; format: cell-based; details: read-out: IC50 HCT-116
[2] = tested on: HCT-116/VM46 human colon carcinoma cells; test: In vitro cytotoxicity, XTT assay, HCT-116/VM46 cells (teniposide-resistant, multidrug resistance phenotype); format: cell-based; details: for fold resistance relative to HCT116 cells: 4320 min; for IC50: Homo sapiens, read-out: IC50 HCT-116/VM46
[3] = background statement; cited from earlier work
[4] = HCT-116/VM46 relative to HCT116, value in parenthesis
[5] = HCT-116/VM46, teniposide-resistant, multidrug resistance phenotype, XTT, 72 hours, 37° C.

Work on `C=C1C2=CC(=O)[C@]3(C)[C@@H](OC(=O)C(F)Cl)C[C@H]4OC[C@@]4(OC(C)=O)[C@H]3[C@H](OC(=O)c3ccccc3)[C@](O)(C[C@@H]1OC(=O)[C@H](O)[C@@H](NC(=O)c1ccccc1)c1ccccc1)C2(C)C` (some centres unmarked) [Example 3, 7-O-chlorofluoroacetyl-10-desacetoxy-11,12-dihydrotaxol-10,12(18)-diene] yielded an IC50 ([1]; HCT-116, 72 h) of 38 nM.

Work on `CC(=O)O[C@@]12CO[C@@H]1C[C@H](OC(=O)C(F)Cl)[C@@]1(C)C(=O)CC3=C(C)[C@@H](OC(=O)[C@H](O)[C@@H](NC(=O)c4ccccc4)c4ccccc4)C[C@@](O)([C@@H](OC(=O)c4ccccc4)[C@H]21)C3(C)C` (some centres unmarked) [Example 4, 7-O-chlorofluoroacetyl-10-desacetoxytaxol] yielded an IC50 ([1]; HCT-116, 72 h) of 8 nM.

With `C=C1C2=CC(=O)[C@@]3(C)[C@H]([C@H](OC(=O)c4ccccc4)[C@](O)(C[C@@H]1OC(=O)[C@H](O)[C@@H](NC(=O)c1ccccc1)c1ccccc1)C2(C)C)[C@]1(OC(C)=O)CO[C@@H]1C[C@@H]3O` [Example 9, 10-Desacetoxy-11,12-dihydrotaxol-10,12(18)-diene] the IC50 ([1]; HCT-116, 72 h) was 38 nM.

In the case of `CC(=O)O[C@@]12CO[C@@H]1C[C@H](O)[C@@]1(C)C(=O)CC3=C(C)[C@@H](OC(=O)[C@H](O)[C@@H](NC(=O)c4ccccc4)c4ccccc4)C[C@@](O)([C@@H](OC(=O)c4ccccc4)[C@H]21)C3(C)C` [Example 10, 10-Desacetoxytaxol], the IC50 ([1]; HCT-116, XTT, 72 hours, 37° C.) is reported as 8 nM, the “fold resistance relative to HCT116 cells” value [2, 4] is reported as 153 fold and the IC50 [2, 5] is reported as 1220 nM.

For `CC(=O)O[C@@]12CO[C@@H]1C[C@@H](O)[C@@]1(C)C(=O)CC3=C(C)[C@@H](OC(=O)[C@H](O)[C@@H](NC(=O)c4ccccc4)c4ccccc4)C[C@@](O)([C@@H](OC(=O)c4ccccc4)[C@H]21)C3(C)C` [Example 13, 7-Epi-10-desacetoxytaxol], the IC50 ([1]; HCT-116, XTT, 72 hours, 37° C.) was over 98 nM, the “fold resistance relative to HCT116 cells” value [2, 4] was under 32 fold and the IC50 [2, 5] was 3090 nM.

`C=C1C2=CC(=O)[C@]3(C)[C@H](O)C[C@H]4OC[C@@]4(OC(C)=O)[C@H]3[C@H](OC(=O)c3ccccc3)[C@](O)(C[C@@H]1OC(=O)[C@H](O)[C@@H](NC(=O)c1ccccc1)c1ccccc1)C2(C)C` [Example 16, 10-Desacetoxy-11,12-dihydro-7-epitaxol-10,12(18)-diene] gave an IC50 ([1]; HCT-116, 72 h) of 40 nM.

With `CC(=O)O[C@H]1C(=O)[C@@]2(C)[C@H]([C@H](OC(=O)c3ccccc3)[C@]3(O)C[C@H](OC(=O)[C@H](O)[C@@H](NC(=O)c4ccccc4)c4ccccc4)C(C)=C1C3(C)C)[C@]1(OC(C)=O)CO[C@@H]1C[C@@H]2O` [Taxol] the IC50 ([1]; HCT-116, 72 h) was 4 nM, the IC50 ([2]; HCT-116/VM46, 72 h) was 440 nM and the “fold resistance relative to HCT116 cells” value ([2]; human, hct-116/vm46 cells) was 124 fold. The “antitumor activity in in vivo animal models” value [3] was “excellent antitumor activity”.
